Consider one compound from patent publication US7943638B2, “Carboxamide compound and use of the same” (Sumitomo Chemical Company, Limited, priority 2005, dated 2011).

The assay has as its system wheat scab (Fusarium culmorum). In words: Wheat scab (Fusarium culmorum) controlling effect test (preventive effect). The assay is classed as in vivo. The note with it: 500 ppm flowable preparation, foliage spray on wheat (Shirogane komugi), 23° C. high humidity 4 days, then 23° C. greenhouse 3 days. The protocol: A plastic pot was charged with a sand loam, and a wheat (Name of plant variety: Shirogane komugi) was seeded, and was grown for 8 days in a greenhouse. Each flowable preparation of the present compound 4 which had been obtained according to Preparation Example 6 was diluted with water to a predetermined concentration (500 ppm) to prepare a spraying solution. Each spraying solution was foliage-sprayed so that the solution was sufficiently adhered to the above adhered to wheat leaves. After spraying, the wheat was air-dried to an extent that the spraying solution on the leaves was dried, then a spore suspension of wheat scab (Fusarium culmorum) (containing about 2000000 spores per 1 ml of the suspension) was spraying-inoculated (at a ratio of about 2 ml per one plant). After inoculation, the wheat was placed at 23° C. under high humidity for 4 days, then placed in a 23° C. greenhouse for 3 days. Thereafter, the controlling effect was investigated.
As a result, an area of a lesion in a plant treated with the present compound 4 was 10% or less of an area of a lesion in a non-treated plant.

Consider `Cc1cc(O)c(C(=O)Nc2cccnc2)c(=O)n1C` [present compound 4, N-(3-pyridyl)-1,6-dimethyl-4-hydroxy-2-oxo-1,2-dihydropyridine-3-carboxamide], for which the “area of a lesion in a treated plant relative to area of a lesion in a non-treated plant” value is at most 10%.
